Data set [1] relates to JAK1-dependent pathway (IL-6 stimulated STAT1 phosphorylation in CD4+ lymphocytes) in human whole blood. Nature of the data set: cells. To be noted: Lymphocyte, read-out: pIC50 in the inhibition of STAT1 phosphorylation (converted).
Description: Therefore, blood was taken from human volunteers who gave informed consent. Blood was then equilibrated for 30 minutes at 37° C. under gentle rocking, then aliquoted in Eppendorf tubes. Compound was added at different concentrations and incubated at 37° C. for 30 minutes under gentle rocking and subsequently stimulated for 20 minutes at 37° C. under gentle rocking with interleukin 6 (IL-6) for JAK1-dependent pathway stimulation or GM-CSF for JAK2-dependent pathway stimulation. Phospho-STAT1 and phospho-STAT5 were then evaluated using FACS analysis.
The increase in phosphorylation of STAT1 by IL-6 in lymphocytes was measured using anti phospho-STAT1 antibody by FACS.
A 3-fold dilution series of the compound was prepared in DMSO (10 mM stock solution). Control-treated samples received DMSO instead of compound. All samples were incubated with a 1% final DMSO concentration.
Human blood was collected in heparinized tubes. The blood was divided in aliquots of 148.54 μl. […]
50,000 total events were counted and Phospho-STAT1 positive cells were measured after gating on CD4+ cells, in the lymphocyte gate. Data were analyzed using the FACSDiva software and the percentage inhibition of IL-6 stimulation calculated on the percentage of positive cells for phospho-STAT1 on CD4+ cells.
The subject of data set [2] is JAK1-dependent signaling pathway (IFNα induced pSTAT1) in human whole blood. Nature of the data set: tissue or blood. To be noted: read-out: pIC50 for inhibiting the INFα induced increase of pSTAT1 levels (converted). Here is the method: The samples were incubated at 37° C. for 30 min.
Absorbance was measured at 450 nm.

Data set [3] in a line: Steady state PK in rat CIA model. The class given is in vivo. To be noted: plasma; for AUC(0-t): read-out: AUC (0-24 h); for half-life: read-out: T½ (converted). As for the experimental part:
At day 7 or 11, blood samples were collected at the retro-orbital sinus with lithium heparin as anti-coagulant at the following time points: predose, 1, 3 and 6 hrs. Whole blood samples were centrifuged and the resulting plasma samples were stored at −20° C. pending analysis. Plasma concentrations of each test compound were determined by an LC-MS/MS method in which the mass spectrometer was operated in positive electrospray mode. Pharmacokinetic parameters were calculated using Winnonlin® (Pharsight®, United States) and it was assumed that the predose plasma levels were equal to the 24 hrs plasma levels.

The test system of the next data set is rat CIA model. Nature of the data set: Rat collagen induced arthritis (CIA) model. The class given is in vivo. On the set-up: key to Clinical Assessment End point score / Clinical Assessment AUC Score / Paw swelling / Larsen' Score: a “*” indicates that there was a statistically significant improvement in the score, p 0.05 vs. untreated control. As for the experimental part: Completed Freund's adjuvant (CFA) and incomplete Freund's adjuvant (IFA) were purchased from Difco. Bovine collagen type II (CII), lipopolysaccharide (LPS), and Enbrel was obtained from Chondrex (Isle d'Abeau, France); Sigma (P4252, L′Isle d'Abeau, France), Whyett (25 mg injectable syringe, France) Acros Organics (Palo Alto, Calif.), respectively. All other reagents used were of reagent grade and all solvents were of analytical grade.
Dark Agouti rats (male, 7-8 weeks old) were obtained from Harlan Laboratories (Maison-Alfort, France). Rats were kept on a 12 hr light/dark cycle (0700-1900). Temperature was maintained at 22° C., and food and water were provided ad libitum.
One day before the experiment, CII solution (2 mg/mL) was prepared with 0.05 M acetic acid and stored at 4° C. Just before the immunization, equal volumes of adjuvant (IFA) and CII were mixed by a homogenizer in a pre-cooled glass bottle in an ice water bath. Extra adjuvant and prolonged homogenization may be required if an emulsion is not formed. 0.2 mL of the emulsion was injected intradermally at the base of the tail of each rat on day 1, a second booster intradermal injection (CII solution at 2 mg/mL in CFA 0.1 mL saline) was performed on day 9. This immunization method was modified from published methods (Sims et al, 2004; Jou et al., 2005).
The therapeutic effects of the compounds were tested in the rat CIA model. Rats were randomly divided into equal groups and each group contained 10 rats. All rats were immunized on day 1 and boosted on day 9. Therapeutic dosing lasted from day 16 to day 30. The negative control group was treated with vehicle (MC 0.5%) and the positive control group with Enbrel (10 mg/kg, 3× week, s.c.). A compound of interest was typically tested at 3 doses, e.g. 3, 10, 30 mg/kg, p.o.
Arthritis is scored according to the method of Khachigian 2006, Lin et al 2007 and Nishida et al. 2004). The swelling of each of the four paws is ranked with the arthritic score as follows: 0-no symptoms; 1-mild, but definite redness and swelling of one type of joint such as the ankle or wrist, or apparent redness and swelling limited to individual digits, regardless of the number of affected digits; 2-moderate redness and swelling of two or more types of joints; 3-severe redness and swelling of the entire paw including digits; 4-maximally inflamed limb with involvement of multiple joints (maximum cumulative clinical arthritis score 16 per animal) (Nishida et al., 2004).
The area under the curve (AUC) from day 1 to day 14 was calculated for each individual rat. The AUC of each animal was divided by the average AUC obtained for the vehicle in the study from which the data on that animal was obtained and multiplied by 100 (i.e. the AUC was expressed as a percentage of the average vehicle AUC per study).
The clinical score difference for each animal was divided by the average clinical score difference obtained for the vehicle in the study from which the data on that animal was obtained and multiplied by 100 (i.e. the difference was expressed as a percentage of the average clinical score difference for the vehicle per study).
X-ray photos were taken of the hind paws of each individual animal. […]

The target in the next data set is TYK2 (Homo sapiens (Human), UniProt P29597). Nature of the data set: TYK2 inhibition assay. Type of data set: biochemical. Here is the method: After 90 min at 30° C., reactions were stopped by adding 25 μL/well of 150 mM phosphoric acid. […] Plates were washed 6 times with 300 μL per well of a 75 mM phosphoric acid solution and the bottom of the plates was sealed. 40 μL/well of Microscint-20 was added, the top of the plates was sealed and readout was performed using the Topcount (Perkin Elmer). Kinase activity was calculated by subtracting counts per minute (cpm) obtained in the presence of a positive control inhibitor (10 μM staurosporine) from cpm obtained in the presence of vehicle. The ability of a test compound to inhibit this activity was determined as:
(§1) Percentage inhibition=((cpm determined for sample with test compound present−cpm determined for sample with positive control inhibitor)divided by(cpm determined in the presence of vehicle−cpm determined for sample with positive control inhibitor))*100.
Dose dilution series were prepared for the compounds enabling the testing of dose-response effects in the TYK2 assay and the calculation of the IC50 for each compound.

In the next data set the target is JAK1 (Homo sapiens (Human), UniProt P23458). Nature of the data set: JAK1 inhibition assay. The class given is biochemical. Here is the method:
Plates were washed 6 times with 300 μL per well of a 75 mM phosphoric acid solution and the bottom of the plates was sealed. 40 μL/well of Microscint-20 was added, the top of the plates was sealed and readout was performed using the Topcount (Perkin Elmer). Kinase activity was calculated by subtracting counts per minute (cpm) obtained in the presence of a positive control inhibitor (10 μM staurosporine) from cpm obtained in the presence of vehicle. The ability of a test compound to inhibit this activity was determined as:
as §1
Dose dilution series were prepared for the compounds enabling the testing of dose-response effects in the JAK1 assay and the calculation of the IC50 for each compound.

[4] abbreviates: 0.1 mg/kg/day, normalized score.
[5] abbreviates: 0.3 mg/kg/day, normalized score.

The structures appear in SMILES notation. pIC50: −log10 of the molar value. Like-named read-outs stand apart in the source and are kept apart here.

Sequence of JAK1 (P23458 850-1154): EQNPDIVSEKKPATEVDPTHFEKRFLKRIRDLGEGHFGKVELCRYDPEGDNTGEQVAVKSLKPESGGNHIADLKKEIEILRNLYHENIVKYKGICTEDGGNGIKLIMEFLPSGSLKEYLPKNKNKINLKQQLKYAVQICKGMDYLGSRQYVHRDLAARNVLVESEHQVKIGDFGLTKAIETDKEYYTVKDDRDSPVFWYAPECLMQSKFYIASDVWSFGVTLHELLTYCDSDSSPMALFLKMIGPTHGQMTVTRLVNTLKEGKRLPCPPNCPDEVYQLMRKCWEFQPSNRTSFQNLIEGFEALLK
Sequence of TYK2 (P29597 871-1187): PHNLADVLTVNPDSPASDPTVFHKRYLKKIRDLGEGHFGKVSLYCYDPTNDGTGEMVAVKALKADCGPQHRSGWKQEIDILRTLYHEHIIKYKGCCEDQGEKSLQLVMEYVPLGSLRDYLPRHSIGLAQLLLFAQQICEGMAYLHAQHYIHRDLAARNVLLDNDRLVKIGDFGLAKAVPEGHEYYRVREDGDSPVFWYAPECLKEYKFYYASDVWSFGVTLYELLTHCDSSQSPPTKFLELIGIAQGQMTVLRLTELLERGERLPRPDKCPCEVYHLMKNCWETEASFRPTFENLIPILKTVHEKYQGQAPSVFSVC

A word on the Cmax: it is the highest concentration seen after dosing. One may read the Tmax as the time at which the peak concentration occurs. `O=C(Nc1nc2cccc(-c3ccc(CN4CCS(=O)(=O)CC4)cc3)n2n1)C1CC1` [Compound 1, Cyclopropanecarboxylic acid {5-[4-(1,1-dioxo-1-thiomorpholin-4-ylmethyl)-phenyl]-[1,2,4]triazolo [1,5-a]pyridin-2-yl}-amide]: the IC50 in data set [1] is 832 nM; in data set [2] it was 589 nM. Moreover, the Cmax in data set [3] (PO 0.1 mg/kg/day) is 5.18 ng/mL; in data set [3] (PO 0.3 mg/kg/day) it was 19.3 ng/mL; in data set [3] (PO 1 mg/kg/day), 102 ng/mL; in data set [3] (PO 3 mg/kg/day), 363 ng/mL; in data set [3] (PO 10 mg/kg/day), 1170 ng/mL; in data set [3] (PO 30 mg/kg/day), 3800 ng/mL. In addition, the time of peak concentration (Tmax) in data set [3] (PO 0.1 mg/kg/day) was 3 h; in data set [3] (PO 0.3 mg/kg/day) it was 1 h; in data set [3] (PO 1 mg/kg/day), 1 h; in data set [3] (PO 3 mg/kg/day), 1 h; in data set [3] (PO 10 mg/kg/day) it was 1 h; in data set [3] (PO 30 mg/kg/day), 1 h. The AUC(0-t) in data set [3] (PO 0.1 mg/kg/day) amounted to 30 ng·h/mL; in data set [3] (PO 0.3 mg/kg/day), 163 ng·h/mL; in data set [3] (PO 1 mg/kg/day), 931 ng·h/mL; in data set [3] (PO 3 mg/kg/day), 1930 ng·h/mL; in data set [3] (PO 10 mg/kg/day) it was 7170 ng·h/mL; in data set [3] (PO 30 mg/kg/day) it was 27800 ng·h/mL. The half-life in data set [3] (PO 1 mg/kg/day) was 216 min; in data set [3] (PO 3 mg/kg/day) it was 336 min; in data set [3] (PO 10 mg/kg/day) it was 270 min; in data set [3] (PO 30 mg/kg/day) it was 234 min. Besides, the “improvement in efficacy over Compound 2 when the oral doses are compared” value in the data set on rat CIA model was found to be 100 fold. For the same compound, the “Clinical Assessment AUC Score” value in the data set on rat CIA model (setting [4]) is on record as “*”; in the data set on rat CIA model (setting [5]), “*”; with rat CIA model (1 mg/kg/day, normalized score), “*”; in the data set on rat CIA model (3 mg/kg/day, normalized score), “*”. Besides, the “Clinical Assessment End point score” value in the data set on rat CIA model (setting [4]) was “*”; with rat CIA model (setting [5]) it was “*”; with rat CIA model (1 mg/kg/day, normalized score), “*”; with rat CIA model (3 mg/kg/day, normalized score) it was “*”. Further, the Paw swelling result in the data set on rat CIA model (0.3 mg/kg/day), in the data set with rat CIA model (1 mg/kg/day) and in the data set on rat CIA model (3 mg/kg/day) was “*” in each case. The “Larsen' Score” value in the data set on rat CIA model (3 mg/kg/day) is “*”. Besides, the “normalized clinical score values (AUC or difference from day 1 to day 14)” value in the data set with rat CIA model (dose of 0.1 mg/kg) is “statistically significant improvements”. Moreover, in the data set with rat CIA model (dose of 0.3 mg/kg), the paw swelling readout entry is given as “statistically significant increase”. In the data set on rat CIA model (dose of 3 mg/kg), the Larsen score result is on record as “statistically significant increase”.

The pIC50 is the negative decadic logarithm of the IC50, by convention in mol/L. `O=C(Nc1nc2cccc(-c3ccc(CN4CCOCC4)cc3)n2n1)C1CC1` [Compound 2, N-(5-(4-(morpholinomethyl)phenyl)-[1,2,4]triazolo[1,5-a]pyridin-2-yl)cyclopropanecarboxamide]: in data set [3] (PO 10 mg/kg/day), the Cmax is 867 ng/mL, the time of peak concentration (Tmax) worked out at 1 h, the AUC(0-t) came to 2020 ng·h/mL and the half-life was 70.2 min. For the same compound, in data set [3] (PO 30 mg/kg/day), the Cmax is 2630 ng/mL, the time of peak concentration (Tmax) was 1 h, the AUC(0-t) was found to be 7810 ng·h/mL and the half-life is 202 min. The compound also gave a negative logarithm of the IC50 (pIC50) on TYK2 of 5.68. The “Clinical Assessment End point score” value in the data set with rat CIA model (10 mg/kg/day) is given as “*”. In the data set on rat CIA model (30 mg/kg/day), the “Clinical Assessment End point score” value is given as “*”, the “Larsen' Score” value is “*” and the Paw swelling result is “*”. In addition, the “normalized clinical score values” with rat CIA model (dose of 10 mg/kg) is listed as “statistically significant improvements”. In addition, in the data set on rat CIA model (dose of 30 mg/kg), the Larsen score entry is on record as “statistically significant increase” and the paw swelling readout entry is on record as “statistically significant increase”.

`O=C(Nc1nc2cccc(-c3ccc(C(=O)N4CCS(=O)(=O)CC4)cc3)n2n1)C1CC1` [Compound 10, Cyclopropanecarboxylic acid {5-[4-(1,1-dioxo-1-thiomorpholine-4-carbonyl)-phenyl]-[1,2,4]triazolo [1,5-a]pyridin-2-yl}-amide] gave a pIC50 against JAK1 of 7.74.

Consider `O=C(Nc1nc2cccc(-c3ccc(CN4CCC(F)(F)CC4)cc3)n2n1)C1CC1` [Compound 11, Cyclopropanecarboxylic acid {5-[4-(4,4-difluoro-piperidin-1-ylmethyl)-phenyl]-[1,2,4]triazolo [1,5-a]pyridin-2-yl}-amide], for which the negative logarithm of the IC50 (pIC50) against TYK2 is 6.90; against JAK1 it was 8.11.
